Results taken from ChEMBL document CHEMBL3045699, “Three-dimensional quantitative structureactivity relationship approach for the prediction of the antimycobacterial activity of 4-oxo-dihydroquinoline-3-carboxylic acid derivatives” (2008).
≈ marks a conversion by molar mass, not a printed value.

Tested on: Mycobacterium tuberculosis
Assay: Antimycobacterial activity against Mycobacterium tuberculosis
Format: functional
Settings: for MIC: Mycobacterium tuberculosis

Structure (SMILES)	log(1/C)	MIC [µM]
CC1CN(c2ccc3c(=O)c(C(=O)O)cn(-c4c(F)cccc4F)c3c2)CCN1 (configuration not stated)	2.922	1.2 (≈ 0.478 µg/mL)
CC1CN(c2ccc3c(=O)c(C(=O)O)cn(C(C)(C)C)c3c2)CCN1 (configuration not stated)	3.78	0.166 (≈ 0.057 µg/mL)
CC1CN(c2ccc3c(=O)c(C(=O)O)cn(C(C)(C)C)c3c2)CC(C)N1 (configuration not stated)	3.796	0.16 (≈ 0.0572 µg/mL)
CCN1CCN(c2ccc3c(=O)c(C(=O)O)cn(C(C)(C)C)c3c2)CC1	3.461	0.346 (≈ 0.124 µg/mL)
CC(C)(C)n1cc(C(=O)O)c(=O)c2ccc(N3CCC(N)C3)cc21 (configuration not stated)	3.427	0.374 (≈ 0.123 µg/mL)
CNCC1CCN(c2ccc3c(=O)c(C(=O)O)cn(C(C)(C)C)c3c2)C1 (configuration not stated)	3.177	0.666 (≈ 0.238 µg/mL)
CC(C)n1cc(C(=O)O)c(=O)c2ccc(N3CCNCC3)cc21	1.921	12 (≈ 3.78 µg/mL)
CC1CN(c2ccc3c(=O)c(C(=O)O)cn(C(C)C)c3c2)CCN1 (configuration not stated)	2.24	5.76 (≈ 1.9 µg/mL)
CC1CN(c2ccc3c(=O)c(C(=O)O)cn(C(C)C)c3c2)CC(C)N1 (configuration not stated)	2.257	5.53 (≈ 1.9 µg/mL)
CCN1CCN(c2ccc3c(=O)c(C(=O)O)cn(C(C)C)c3c2)CC1	1.956	11.1 (≈ 3.8 µg/mL)
CC(C)n1cc(C(=O)O)c(=O)c2ccc(N3CCC(N)C3)cc21 (configuration not stated)	2.222	6 (≈ 1.89 µg/mL)
CNCC1CCN(c2ccc3c(=O)c(C(=O)O)cn(C(C)C)c3c2)C1 (configuration not stated)	1.655	22.1 (≈ 7.6 µg/mL)
O=C(O)c1cn(C2CCC2)c2cc(N3CCNCC3)ccc2c1=O	2.237	5.79 (≈ 1.9 µg/mL)
CC1CN(c2ccc3c(=O)c(C(=O)O)cn(C4CCC4)c3c2)CCN1 (configuration not stated)	2.556	2.78 (≈ 0.95 µg/mL)
CC1CN(c2ccc3c(=O)c(C(=O)O)cn(C4CCC4)c3c2)CC(C)N1 (configuration not stated)	2.873	1.34 (≈ 0.476 µg/mL)
CCN1CCN(c2ccc3c(=O)c(C(=O)O)cn(C4CCC4)c3c2)CC1	2.271	5.36 (≈ 1.9 µg/mL)
NC1CCN(c2ccc3c(=O)c(C(=O)O)cn(C4CCC4)c3c2)C1 (configuration not stated)	2.556	2.78 (≈ 0.911 µg/mL)
CNCC1CCN(c2ccc3c(=O)c(C(=O)O)cn(C4CCC4)c3c2)C1 (configuration not stated)	1.97	10.7 (≈ 3.81 µg/mL)
O=C(O)c1cn(-c2c(F)cccc2F)c2cc(N3CCNCC3)ccc2c1=O	2.907	1.24 (≈ 0.478 µg/mL)
CN1CCN(c2ccc3c(=O)c(C(=O)O)cn(-c4c(F)cccc4F)c3c2)CC1	2.922	1.2 (≈ 0.478 µg/mL)
CC1CN(c2ccc3c(=O)c(C(=O)O)cn(-c4c(F)cccc4F)c3c2)CC(C)N1 (configuration not stated)	2.936	1.16 (≈ 0.479 µg/mL)
CCC1CN(c2ccc3c(=O)c(C(=O)O)cn(-c4c(F)cccc4F)c3c2)CCN1 (configuration not stated)	2.635	2.32 (≈ 0.958 µg/mL)
CCN1CCN(c2ccc3c(=O)c(C(=O)O)cn(-c4c(F)cccc4F)c3c2)CC1	2.635	2.32 (≈ 0.958 µg/mL)
CC(C)N1CCN(c2ccc3c(=O)c(C(=O)O)cn(-c4c(F)cccc4F)c3c2)CC1	2.649	2.25 (≈ 0.96 µg/mL)
CC(C)CN1CCN(c2ccc3c(=O)c(C(=O)O)cn(-c4c(F)cccc4F)c3c2)CC1	2.06	8.71 (≈ 3.84 µg/mL)
CCCCN1CCN(c2ccc3c(=O)c(C(=O)O)cn(-c4c(F)cccc4F)c3c2)CC1	2.361	4.35 (≈ 1.92 µg/mL)

Structure (SMILES)	log(1/C)	MIC [µM]
NC1CCN(c2ccc3c(=O)c(C(=O)O)cn(-c4c(F)cccc4F)c3c2)C1 (configuration not stated)	3.492	0.322 (≈ 0.124 µg/mL)
CNCC1CCN(c2ccc3c(=O)c(C(=O)O)cn(-c4c(F)cccc4F)c3c2)C1 (configuration not stated)	3.237	0.579 (≈ 0.239 µg/mL)
CCNCC1CCN(c2ccc3c(=O)c(C(=O)O)cn(-c4c(F)cccc4F)c3c2)C1 (configuration not stated)	2.95	1.12 (≈ 0.48 µg/mL)
CCCn1cc(C(=O)O)c(=O)c2ccc(N3CCNCC3)cc21	2.203	6.26 (≈ 1.98 µg/mL)
CCCn1cc(C(=O)O)c(=O)c2ccc(N3CCNC(C)C3)cc21 (configuration not stated)	2.222	6 (≈ 1.98 µg/mL)
CCCn1cc(C(=O)O)c(=O)c2ccc(N3CC(C)NC(C)C3)cc21 (configuration not stated)	2.541	2.88 (≈ 0.989 µg/mL)
CCCn1cc(C(=O)O)c(=O)c2ccc(N3CCN(CC)CC3)cc21	2.842	1.44 (≈ 0.494 µg/mL)
CCCn1cc(C(=O)O)c(=O)c2ccc(N3CCC(N)C3)cc21 (configuration not stated)	1.902	12.5 (≈ 3.95 µg/mL)
CCCn1cc(C(=O)O)c(=O)c2ccc(N3CCC(CNC)C3)cc21 (configuration not stated)	1.638	23 (≈ 7.91 µg/mL)
CC(C)(C)n1cc(C(=O)O)c(=O)c2ccc(N3CCNCC3)cc21	3.427	0.374 (≈ 0.123 µg/mL)
CCC1CN(c2ccc3c(=O)c(C(=O)O)cn(C4CC4)c3c2)CCN1 (configuration not stated)	3.158	0.696 (≈ 0.238 µg/mL)
CCN1CCN(c2ccc3c(=O)c(C(=O)O)cn(C4CC4)c3c2)CC1	3.442	0.362 (≈ 0.124 µg/mL)
CC(C)N1CCN(c2ccc3c(=O)c(C(=O)O)cn(C4CC4)c3c2)CC1	3.174	0.669 (≈ 0.238 µg/mL)
CC(C)CN1CCN(c2ccc3c(=O)c(C(=O)O)cn(C4CC4)c3c2)CC1	3.19	0.645 (≈ 0.238 µg/mL)
CCCCN1CCN(c2ccc3c(=O)c(C(=O)O)cn(C4CC4)c3c2)CC1	2.889	1.29 (≈ 0.477 µg/mL)
CNCC1CCN(c2ccc3c(=O)c(C(=O)O)cn(C4CC4)c3c2)C1 (configuration not stated)	2.857	1.39 (≈ 0.475 µg/mL)
CCNCC1CCN(c2ccc3c(=O)c(C(=O)O)cn(C4CC4)c3c2)C1 (configuration not stated)	2.873	1.34 (≈ 0.476 µg/mL)
CC(C)NCC1CCN(c2ccc3c(=O)c(C(=O)O)cn(C4CC4)c3c2)C1 (configuration not stated)	2.889	1.29 (≈ 0.477 µg/mL)
CN(C)CC1CCN(c2ccc3c(=O)c(C(=O)O)cn(C4CC4)c3c2)C1 (configuration not stated)	2.873	1.34 (≈ 0.476 µg/mL)
CC1(CN)CCN(c2ccc3c(=O)c(C(=O)O)cn(C4CC4)c3c2)C1 (configuration not stated)	3.777	0.167 (≈ 0.057 µg/mL)
CN1CCN(c2ccc3c(=O)c(C(=O)O)cn(C4CC4)c3c2)CC1	3.14	0.724 (≈ 0.237 µg/mL)
CC1CN(c2ccc3c(=O)c(C(=O)O)cn(C4CC4)c3c2)CCN1 (configuration not stated)	3.14	0.724 (≈ 0.237 µg/mL)
CC1CN(c2ccc3c(=O)c(C(=O)O)cn(C4CC4)c3c2)CC(C)N1 (configuration not stated)	3.442	0.362 (≈ 0.124 µg/mL)
O=C(O)c1cn(C2CC2)c2cc(N3CCNCC3)ccc2c1=O	3.122	0.754 (≈ 0.236 µg/mL)
NC1CCN(c2ccc3c(=O)c(C(=O)O)cn(C4CC4)c3c2)C1 (configuration not stated)	3.122	0.754 (≈ 0.236 µg/mL)
